In the assay the target is T1, MINPP1 (Homo sapiens, UniProt Q9UNW1).
T1 construct: recombinant, expressed in and purified from E. coli; borders and tags only in the supplement
T1 sequence (Q9UNW1 31-487): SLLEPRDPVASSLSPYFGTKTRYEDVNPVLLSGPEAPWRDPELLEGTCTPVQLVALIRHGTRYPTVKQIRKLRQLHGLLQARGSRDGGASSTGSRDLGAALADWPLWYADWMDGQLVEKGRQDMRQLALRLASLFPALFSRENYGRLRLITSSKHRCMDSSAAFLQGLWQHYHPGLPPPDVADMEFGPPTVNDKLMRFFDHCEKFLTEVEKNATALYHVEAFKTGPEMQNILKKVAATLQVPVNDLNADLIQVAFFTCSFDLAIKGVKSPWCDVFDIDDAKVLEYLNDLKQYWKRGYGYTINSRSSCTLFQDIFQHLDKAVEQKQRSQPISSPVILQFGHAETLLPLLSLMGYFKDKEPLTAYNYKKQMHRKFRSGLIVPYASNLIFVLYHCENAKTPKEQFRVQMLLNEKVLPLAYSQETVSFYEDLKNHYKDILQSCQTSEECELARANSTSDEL
Description: 2D NMR of dephosphorylation of [[…]6]InsP5[2OH]. The conditions noted are these: read-out: apparent IC50. In kind it is biochemical.

We go through 1 compound from article PMC9801504, “Stable Isotopomers of myo-Inositol Uncover a Complex MINPP1-Dependent Inositol Phosphate Network” (ACS Central Science, 2022).

What is called IC50 is the point on the concentration scale where inhibition reaches its midpoint.

Consider `O=P(O)(O)O[C@H]1[C@H](OP(=O)(O)O)[C@@H](OP(=O)(O)O)[C@H](OP(=O)(O)O)[C@@H](OP(=O)(O)O)[C@H]1OP(=O)(O)O` [InsP6], for which the IC50 worked out at 2000 nM.
